Results: US8778913B2, “Antimicrobial compositions for treating microbial infections” (priority 2006, dated 2014)
Where two headings read alike, the source gives them in different places.

Key:
[1] = test system: staphyloxanthin biosynthesis; assay: S. aureus pigment (staphyloxanthin) formation; type: cell-based, Staphylococcus aureus; details: for IC50: Staphylococcus aureus
Text: (§1) Wild-type S. aureus strain (Pig1), isolated from the skin of a child with atopic dermatitis. Streptococcus pyogenes strain 5448 is a well-characterized serotype M1T1 clinical isolate. CD1 and C57Bl/6 mice were purchased from Charles River. The gp91^Phos−/− mice were bred at the Veteran's Administration Medical Center, San Diego and maintained on trimethoprim/sulfamethoxazole prophylaxis until 3 d prior to experiments. S. aureus and S. pyogenes were propagated in Todd-Hewitt broth (THB) or on THB agar (Difco, Detroit, Mich.). Unless otherwise indicated, all experiments were performed with bacteria derived from S. aureus 36-48 h stationary phase cultures or S. pyogenes 24 h stationary phase cultures, a point when pigmentation phenotypes were readily apparent.
A series of known SQS inhibitors were tested for inhibition of staphyloxanthin biosynthesis.

[2] = test system: S. aureus; assay: Whole blood killing assay; type: cell-based, Staphylococcus aureus
Procedure: Bacteria were washed twice in PBS, diluted to an inoculum of 10^4 cfu in 25 μl PBS, and mixed with 75 μl of freshly drawn human or mouse blood in heparinized tubes. The tubes were incubated at 37° C. for 4 h with agitation, at which time dilutions were plated on THA for enumeration of surviving cfu.

[3] = test system: S. aureus; assay: Singlet oxygen susceptibility assay; type: cell-based, Staphylococcus aureus
Procedure: (§2) Tests for susceptibility to oxidants were performed either in PBS (S. aureus) or THB (S. pyogenes). Hydrogen peroxide (H2O2) was added to 1.5% final concentration, […] bacteria incubated at 37° C. for 1 h, then 1,000 U/ml of catalase (Sigma) added to quench residual H2O2. Dilutions were plated on THA for enumeration of surviving cfu. For the singlet oxygen assay, 10^8 S. aureus or 4×10^8 S. pyogenes were incubated at 37° C. in individual wells of a 24-well culture plate in the presence or absence of 1-6 μg/ml methylene blue and situated exactly 10 cm from a 100-watt light source. Bacterial viability was assessed after 1-3 h by plating dilutions on THA.

[4] = test system: staphyloxanthin biosynthesis; details: earlier report; cited from earlier work
[5] = test system: S. aureus; assay: S. aureus growth inhibition in culture; type: cell-based, Staphylococcus aureus
Procedure: The compound of Formula III was prepared as described in Magnin et al., α-Phosphonosulfonic acids: Potent and selective inhibitors of squalene synthase, J. Med. Chem. 39 (1996) 657-660, and tested in S. aureus growth inhibition and in pigment formation.
as §1
Inhibition of staphyloxanthin biosynthesis by formula III could represent a purely virulence factor-based therapy for S. aureus infection. […]

[6] = molecular target: T1, CrtM (dehydrosqualene synthase) (Staphylococcus aureus, UniProt A9JQL9); assay: Recombinant CrtM enzyme inhibition; type: biochemical, S. aureus
T1 construct: made in house; host or cells: E. coli
T1 sequence (A9JQL9 1-287): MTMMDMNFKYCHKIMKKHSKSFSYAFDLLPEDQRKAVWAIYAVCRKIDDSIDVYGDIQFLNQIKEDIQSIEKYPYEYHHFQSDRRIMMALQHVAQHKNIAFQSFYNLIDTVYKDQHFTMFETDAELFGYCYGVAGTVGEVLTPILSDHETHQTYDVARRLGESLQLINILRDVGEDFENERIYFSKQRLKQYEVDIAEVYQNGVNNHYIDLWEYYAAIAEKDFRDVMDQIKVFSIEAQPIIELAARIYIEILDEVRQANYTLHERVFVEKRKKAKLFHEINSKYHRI
Procedure: A series of known SQS inhibitors were tested for inhibition of staphyloxanthin biosynthesis. […] Since Formula III (and its analogs) have been advanced through Phase II human clinical trials as cholesterol-lowering agents, the agent is clearly of potential interest as a new lead compound inhibiting staphyloxanthin virulence factor formation in S. aureus.

[7] = test system: S. aureus; assay: Hydrogen peroxide susceptibility assay; type: cell-based, Staphylococcus aureus; details: after incubation with 100 μM; vs PBS control
Procedure: as §2

[8] = test system: MCF-7; assay: Growth of human cell line MCF-7; type: cell-based
Procedure: (§3) Inhibition of staphyloxanthin biosynthesis by formula III could represent a purely virulence factor-based therapy for S. aureus infection. […] However, after incubation with 100 μM formula III, the resulting non-pigmented S. aureus were ˜15-fold more susceptible to killing by 1.5% hydrogen peroxide and ˜4-fold less able to survive in freshly isolated human whole blood than were normally pigmented S. aureus treated with PBS control. As expected, formula III had no effect on the growth of three human cell lines (MCF-7, NCI-H460 and SF-268) since there only cholesterol biosynthesis is targeted, and cholesterol is generally abundant in serum (or diet).

[9] = test system: NCI-H460; assay: Growth of human cell line NCI-H460; type: cell-based
Procedure: as §3

[10] = test system: SF-268; assay: Growth of human cell line SF-268; type: cell-based
Procedure: as §3

[11] = test system: S. aureus; assay: In vivo mouse model of S. aureus skin infection
Procedure: Ten to 16 week old CD-1 or gp91^Phox−/− mice were injected subcutaneously in one flank (chosen randomly) with the bacterial test strain, and simultaneously in the opposite flank with a different strain for direct comparison. Bacterial cultures were washed, diluted and resuspended in PBS mixed 1:1 with sterile Cytodex beads (Amersham) at the specified inoculum, following an established protocol for generating localized S. aureus and S. pyogenes subcutaneous infection. Lesion size, as assessed by the maximal length×width of the developing ulcers, was recorded daily. Cumulative lesion size represents the total sum of lesion sizes from all animals in each treatment group on a given day. At day 8 (S. aureus) or day 5 (S. pyogenes), animals were euthanized, skin lesions excised, homogenized in PBS, and plated on THA for quantitative culture.

[12] = test system: S. aureus; assay: Systemic (intraperitoneal) S. aureus challenge in mice; type: in vivo, mouse
Procedure: Here cfu counts are measured in the kidneys.
0/6 mice treated with the compound of Formula III had detectable bacteria in either organ.
Given the in vitro abilities of formula III treatment to increase S. aureus susceptibility to oxidants and blood (neutrophil-mediated) clearance, in vivo testing was performed. Under intraperitoneal challenge one group of mice (n=14) was treated with […] b.i.d. (days −1, 0, 1 and 2), and a second group (n=13) with equivalent volume injections of PBS control.

Structure (SMILES): CCCC(C(=O)OCCN(CC)CC)(c1ccccc1)c1ccccc1 [SKF 525-A, 2-diethylaminoethyl-2,2-diphenyl-valerate, reference compound]
- pigment production in WT S. aureus ([1]; WT strain grown in presence of agent (FIG. 4a)): dose-dependent decrease
- ability of WT S. aureus to survive in human whole blood ([2]; WT S. aureus (FIG. 4c)): decrease
- effect on blood survival of ΔCrtM mutant ([2]; ΔCrtM mutant control): no significant effects
- susceptibility to singlet oxygen killing ([3]; WT S. aureus (FIG. 4b)): dose-dependent increase
- effect on oxidant susceptibility of ΔCrtM mutant ([3]; ΔCrtM mutant control): no significant effects
- pigment formation in S. aureus (previously shown) [4]: inhibit pigment formation

Structure (SMILES): O=P([O-])([O-])C(CCCc1cccc(Oc2ccccc2)c1)S(=O)(=O)[O-].[K+].[K+].[K+] (racemic) [Formula III]
- effect on cell growth ([5]; S. aureus growth inhibition): no detectable effect
- effect on S. aureus growth characteristics or survival in culture ([5]; up to 2 mM, through 48 hr): did not affect
- effect on pigment formation [1]: potent effect
- IC50 ([1]; 48 h, after 2 days at 37° C. with shaking (Table 1 title), read-out: IC50 (concentration for 50% pigment formation)): ~2000 nM
- IC50 ([1]; read-out: IC50, inhibition of staphyloxanthin biosynthesis): ~1000 nM
- IC50 ([6]; S. aureus enzyme expressed in E. coli): 600 nM
- Ki ([6]; corresponding to the IC50): ~1.5 nM
- ED50, whole blood killing of S. aureus ([2]; FIG. 8): ~20000 nM
- decrease in ability to survive in freshly isolated human whole blood ([2]; after incubation with 100 μM, vs PBS control): ~4 fold
- enhancement in whole blood killing of S. aureus ([2]; at 40 μM (FIG. 8)): ~3 fold
- increase in susceptibility to killing by 1.5% hydrogen peroxide [7]: ~15 fold
- effect on growth of human cell line [8]: no effect
- effect on growth of human cell line [9]: no effect
- effect on growth of human cell line [10]: no effect
- lesion size ([11]; 200 μM (FIG. 9A)): major decrease
- ill effects in mice ([11]; 200 μM or 1000 μM): no apparent ill effects
- lesion size ([11]; 1000 μM (FIG. 9B)): major decrease
- mice with cfus below the detection threshold (kidneys) ([12]; 0.5 mg b.i.d. days −1, 0, 1, 2, sacrifice at 72 h): 8/13
- S. aureus bacterial counts in the kidneys vs control group ([12]; 0.5 mg b.i.d. days −1, 0, 1, 2, sacrifice at 72 h, P<0.001): significantly lower
- mice with detectable bacteria in the spleen ([12]; after 4 days (FIG. 12A)): 0/6
- mice with detectable bacteria in the kidneys ([12]; after 4 days (FIG. 12B)): 0/6
